Experimental data as given in US7211572B2 (Japan Tobacco Inc., priority 2003, dated 2007).
Counter-ions that a name gives are not always drawn.

biological target: T1, HIV integrase (Human immunodeficiency virus type 1 group M subtype B, UniProt P12497, F1332H); assay: Determination of enzyme (HIV integrase) inhibitory activity; format: biochemical; conditions: recombinant HIV integrase (F185H), strand transfer ELISA, absorbance at 450 nm
T1 construct: HIV integrase full length gene; made in house; host or cells: Escherichia coli BL21(DE3), plasmid pET21a-INH
How it was run: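 Full-length integrase with F185H, expressed in E. coli and purified, was reacted for 60 min at 37 °C with compound and biotinylated donor DNA bound to streptavidin plates. Target DNA was added for 10 min, then anti-digoxigenin-peroxidase detection at A450; IC50 from % inhibition versus enzyme-free blank.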

| Structure (SMILES) | IC50 [nM] |
| --- | --- |
| COCC(=O)Nc1cn2ccn(Cc3ccc(F)cc3)c(=O)c2c(O)c1=O [Example 318, N-[2-(4-fluorobenzyl)-9-hydroxy-1,8-dioxo-1,8-dihydro-2H-pyrido[1,2-a]pyrazin-7-yl]-2-methoxyacetamide] | 10 to 100 |
| CC(C)S(=O)(=O)Nc1cn2ccn(Cc3ccc(F)cc3)c(=O)c2c(O)c1=O [Example 319, N-[2-(4-fluorobenzyl)-9-hydroxy-1,8-dioxo-1,8-dihydro-2H-pyrido[1,2-a]pyrazin-7-yl]-2-propanesulfonamide] | 10 to 100 |
| O=C(Nc1cn2ccn(Cc3ccc(F)cc3)c(=O)c2c(O)c1=O)c1cccnc1 [Example 320, N-[2-(4-fluorobenzyl)-9-hydroxy-1,8-dioxo-1,8-dihydro-2H-pyrido[1,2-a]pyrazin-7-yl]nicotinamide trifluoroacetate] | < 10 |
| CC(C)C(=O)Nc1cn2ccn(Cc3ccc(F)cc3)c(=O)c2c(O)c1=O [Example 321, N-[2-(4-fluorobenzyl)-9-hydroxy-1,8-dioxo-1,8-dihydro-2H-pyrido[1,2-a]pyrazin-7-yl]isobutyramide] | 10 to 100 |
| COCCNC(=O)c1cn2ccn(Cc3ccc(F)cc3)c(=O)c2c(O)c1=O [Example 322, N-(2-methoxyethyl)-2-(4-fluorobenzyl)-9-hydroxy-1,8-dioxo-1,8-dihydro-2H-pyrido[1,2-a]pyrazine-7-carboxamide] | 10 to 100 |
| CCNC(=O)c1cn2ccn(Cc3ccc(F)cc3)c(=O)c2c(O)c1=O [Example 323, N-ethyl-2-(4-fluorobenzyl)-9-hydroxy-1,8-dioxo-1,8-dihydro-2H-pyrido[1,2-a]pyrazine-7-carboxamide] | 10 to 100 |
| CC(=O)Nc1cn2ccn(CCCc3c(F)cccc3Cl)c(=O)c2c(O)c1=O [Example 324, N-{2-[3-(2-chloro-6-fluorophenyl)propyl]-9-hydroxy-1,8-dioxo-1,8-dihydro-2H-pyrido[1,2-a]pyrazin-7-yl]acetamide] | 10 to 100 |
| CC(=O)Nc1cn2ccn(Cc3cccc(Cl)c3F)c(=O)c2c(O)c1=O [Example 325, N-[2-(3-chloro-2-fluorobenzyl)-9-hydroxy-1,8-dioxo-1,8-dihydro-2H-pyrido[1,2-a]pyrazin-7-yl]acetamide hydrochloride] | 10 to 100 |
| COC(=O)c1cc(F)ccc1CN1CCn2cc(-c3nccs3)c(=O)c(O)c2C1=O [Example 326, methyl 5-fluoro-2-[9-hydroxy-1,8-dioxo-7-(thiazol-2-yl)-1,3,4,8-tetrahydro-pyrido[1,2-a]pyrazin-2-ylmethyl]benzoate] | 100 to 1000 |
| O=C1c2c(O)c(=O)c(-c3ccccn3)cn2CCN1Cc1ccc(F)c(Cl)c1 [Example 327, 2-(3-chloro-4-fluorobenzyl)-9-hydroxy-7-(pyridin-2-yl)-3,4-dihydro-2H-pyrido[1,2-a]pyrazine-1,8-dione hydrochloride] | < 10 |
| O=C1c2c(O)c(=O)c(-c3cccnc3)cn2CCN1Cc1cccc(Cl)c1F [Example 328, 2-(3-chloro-2-fluorobenzyl)-9-hydroxy-7-(pyridin-3-yl)-3,4-dihydro-2H-pyrido[1,2-a]pyrazine-1,8-dione hydrochloride] | 10 to 100 |
| O=C1c2c(O)c(=O)c(-c3ccccn3)cn2CCN1CCCc1c(F)cccc1Cl [Example 329, 2-[3-(2-chloro-6-fluorophenyl)propyl]-9-hydroxy-7-(pyridin-2-yl)-3,4-dihydro-2H-pyrido[1,2-a]pyrazine-1,8-dione hydrochloride] | 10 to 100 |
| O=C1c2c(O)c(=O)c(-c3nccs3)cn2CCN1Cc1cc2ccccc2o1 [Example 330, 2-(benzofuran-2-ylmethyl)-9-hydroxy-7-(thiazol-2-yl)-3,4-dihydro-2H-pyrido[1,2-a]pyrazine-1,8-dione] | < 10 |
| O=C(NC(Cc1ccccc1)c1ccccc1)c1cn2c(c(O)c1=O)C(=O)N(Cc1cccc(Cl)c1)CC2 (centres unmarked) [Example 331, N-(1,2-diphenylethyl)-2-(3-chlorobenzyl)-9-hydroxy-1,8-dioxo-1,3,4,8-tetrahydro-2H-pyrido[1,2-a]pyrazine-7-carboxamide] | 10 to 100 |
| CC(=O)Nc1cn2c(c(O)c1=O)C(=O)N(Cc1cccc(Cl)c1F)CC2 [Example 332, N-[2-(3-chloro-2-fluorobenzyl)-9-hydroxy-1,8-dioxo-1,3,4,8-tetrahydro-2H-pyrido[1,2-a]pyrazin-7-yl]acetamide] | 10 to 100 |
| O=C1c2c(O)c(=O)c(-c3nccs3)cn2CCN1CCCc1ccccc1F [Example 333, 2-[3-(2-fluorophenyl)propyl)-9-hydroxy-7-(thiazol-2-yl)-3,4-dihydro-2H-pyrido[1,2-a]pyrazine-1,8-dione] | 10 to 100 |
| O=C(NC(CCc1ccccc1)c1ccccc1)c1cn2c(c(O)c1=O)C(=O)N(Cc1cccc(Cl)c1)CC2 (centres unmarked) [Example 334, N-(1,3-diphenylpropyl)-2-(3-chlorobenzyl)-9-hydroxy-1,8-dioxo-1,3,4,8-tetrahydro-2H-pyrido[1,2-a]pyrazine-7-carboxamide] | 10 to 100 |
| CNC(=O)c1cc(F)ccc1CCCN1CCn2cc(-c3nccs3)c(=O)c(O)c2C1=O [Example 335, 5-fluoro-2-{3-[9-hydroxy-1,8-dioxo-7-(thiazol-2-yl)-1,3,4,8-tetrahydro-pyrido[1,2-a]pyrazin-2-yl]propyl)-N-methylbenzamide] | 10 to 100 |

| Structure (SMILES) | IC50 [nM] |
| --- | --- |
| CC(C)(C)C(=O)c1cn2c(c(O)c1=O)C(=O)N(CCCc1c(F)cccc1Cl)CC2 [Example 336, 2-[3-(2-chloro-6-fluorophenyl)propyl]-7-(2,2-dimethylpropionyl)-9-hydroxy-3,4-dihydro-2H-pyrido[1,2-a]pyrazine-1,8-dione] | < 10 |
| CC(C)C(=O)c1cn2c(c(O)c1=O)C(=O)N(Cc1cccc(Cl)c1)CC2 [Example 337, 2-(3-chlorobenzyl)-9-hydroxy-7-isobutyryl-3,4-dihydro-2H-pyrido[1,2-a]pyrazine-1,8-dione] | < 10 |
| O=C1c2c(O)c(=O)c(-c3nccs3)cn2CCN1CCCCc1ccccc1 [Example 338, 9-hydroxy-2-(4-phenylbutyl)-7-(thiazol-2-yl)-3,4-dihydro-2H-pyrido[1,2-a]pyrazine-1,8-dione hydrochloride] | 10 to 100 |
| CCCCCN1CCn2cc(-c3nccs3)c(=O)c(O)c2C1=O [Example 339, 9-hydroxy-2-pentyl-7-(thiazol-2-yl)-3,4-dihydro-2H-pyrido[1,2-a]pyrazine-1,8-dione hydrochloride] | 100 to 1000 |
| O=C1c2c(O)c(=O)c(-c3ccncc3)cn2CCN1Cc1cccc(Cl)c1F [Example 340, 2-(3-chloro-2-fluorobenzyl)-9-hydroxy-7-(pyridin-4-yl)-3,4-dihydro-2H-pyrido[1,2-a]pyrazine-1,8-dione hydrochloride] | < 10 |
| O=c1c(-c2ccncc2)cn2ccn(Cc3ccc(F)cc3)c(=O)c2c1O [Example 341, 2-(4-fluorobenzyl)-9-hydroxy-7-(pyridin-4-yl)-2H-pyrido[1,2-a]pyrazine-1,8-dione hydrochloride] | < 10 |
| O=c1c(-c2ccncn2)cn2ccn(Cc3cccc(Cl)c3F)c(=O)c2c1O [Example 342, 2-(3-chloro-2-fluorobenzyl)-9-hydroxy-7-(pyrimidin-4-yl)-2H-pyrido[1,2-a]pyrazine-1,8-dione trifluoroacetate] | < 10 |
| Cn1ncnc1-c1cn2c(c(O)c1=O)C(=O)N(Cc1ccc(F)c(Cl)c1)CC2 [Example 343, 2-(3-chloro-4-fluorobenzyl)-9-hydroxy-7-(2-methyl-2H-1,2,4-triazol-3-yl)-3,4-dihydro-2H-pyrido[1,2-a]pyrazine-1,8-dione] | < 10 |
| CC(=O)c1cn2ccn(Cc3ccc(F)cc3)c(=O)c2c(O)c1=O [Example 344, 7-acetyl-2-(4-fluorobenzyl)-9-hydroxy-2H-pyrido [1,2-a]pyrazine-1,8-dione] | < 10 |
| CC(C)C(=O)c1cn2ccn(Cc3ccc(F)cc3)c(=O)c2c(O)c1=O [Example 345, 2-(4-fluorobenzyl)-9-hydroxy-7-isobutyryl-2H-pyrido[1,2-a]pyrazine-1,8-dione hydrochloride] | < 10 |
| O=C(Nc1cn2c(c(O)c1=O)C(=O)N(Cc1cccc(Cl)c1)CC2)c1ccncc1 [Example 346, N-[2-(3-chlorobenzyl)-9-hydroxy-1,8-dioxo-1,3,4,8-tetrahydro-2H-pyrido[1,2-a]pyrazin-7-yl]isonicotinamide hydrochloride] | 10 to 100 |
| O=c1c(-c2ccncn2)cn2ccn(Cc3ccc(F)cc3)c(=O)c2c1O [Example 347, 2-(4-fluorobenzyl)-9-hydroxy-7-(pyrimidin-4-yl)-2H-pyrido[1,2-a]pyrazine-1,8-dione] | < 10 |
| O=C1c2c(O)c(=O)c(-c3cnccn3)cn2CCN1Cc1ccc(F)c(Cl)c1 [Example 348, 2-(3-chloro-4-fluorobenzyl)-9-hydroxy-7-(pyrazin-2-yl)-3,4-dihydro-2H-pyrido[1,2-a]pyrazine-1,8-dione] | 10 to 100 |
| CC(C)C(=O)Nc1cn2c(c(O)c1=O)C(=O)N(Cc1ccc(F)c(Cl)c1)CC2 [Example 349, N-[2-(3-chloro-4-fluorobenzyl)-9-hydroxy-1,8-dioxo-1,3,4,8-tetrahydro-2H-pyrido[1,2-a]pyrazin-7-yl]isobutyramide] | 10 to 100 |
| O=C1c2c(O)c(=O)c(-c3nccs3)cn2CCN1Cc1ccc(Cl)cc1O [Example 350, 2-(4-chloro-2-hydroxybenzyl)-9-hydroxy-7-(thiazol-2-yl)-3,4-dihydro-2H-pyrido[1,2-a]pyrazine-1,8-dione hydrochloride] | < 10 |
| CC(CCN1CCn2cc(-c3nccs3)c(=O)c(O)c2C1=O)c1ccccc1 (centres unmarked) [Example 351, 9-hydroxy-2-(3-phenylbutyl)-7-(thiazol-2-yl)-3,4-dihydro-2H-pyrido[1,2-a]pyrazine-1,8-dione hydrochloride] | 10 to 100 |
| O=C(Nc1cn2c(c(O)c1=O)C(=O)N(Cc1cccc(Cl)c1F)CC2)c1cccnc1 [Example 352, N-[2-(3-chloro-2-fluorobenzyl)-9-hydroxy-1,8-dioxo-1,3,4,8-tetrahydro-2H-pyrido[1,2-a]pyrazin-7-yl)nicotinamide hydrochloride] | 10 to 100 |
